Measured values taken from PubChem BioAssay (NCI).
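Method: 48-hour compound exposure of cells in 96-well plates, five concentrations, linear interpolation of endpoints. Here, GI50 denotes the concentration required for 50% inhibition of growth. At the TGI there is no net growth.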 Where a SMILES comes first, the peptide text is derived from it.

Columns and labels:
Test in all cases: NCI-60 cell line screen, 48 h
SNB-75 CNS = system: SNB-75 CNS
SR leukemia = system: SR leukemia
OVCAR-3 ovarian = system: OVCAR-3 ovarian
UACC-257 melanoma = system: UACC-257 melanoma
SK-MEL-28 melanoma = system: SK-MEL-28 melanoma
LOX IMVI melanoma = system: LOX IMVI melanoma
MALME-3M melanoma = system: MALME-3M melanoma
OVCAR-5 ovarian = system: OVCAR-5 ovarian
NCI-H522 lung = system: NCI-H522 lung
BT-549 breast = system: BT-549 breast

| Structure (SMILES) | TGI (SNB-75 CNS) [µM] | TGI (SR leukemia) [µM] | TGI (OVCAR-3 ovarian) [µM] | TGI (UACC-257 melanoma) [µM] | TGI (SK-MEL-28 melanoma) [µM] | TGI (LOX IMVI melanoma) [µM] | TGI (MALME-3M melanoma) [µM] | TGI (OVCAR-5 ovarian) [µM] | TGI (NCI-H522 lung) [µM] | GI50 (SNB-75 CNS) [µM] | GI50 (OVCAR-5 ovarian) [µM] | GI50 (UACC-257 melanoma) [µM] | GI50 (SK-MEL-28 melanoma) [µM] | GI50 (MALME-3M melanoma) [µM] | GI50 (BT-549 breast) [µM] | TGI (BT-549 breast) [µM] | GI50 (OVCAR-3 ovarian) [µM] | GI50 (LOX IMVI melanoma) [µM] | GI50 (NCI-H522 lung) [µM] | GI50 (SR leukemia) [µM] |
| --- | --- | --- | --- | --- | --- | --- | --- | --- | --- | --- | --- | --- | --- | --- | --- | --- | --- | --- | --- | --- |
| O=[N+]([O-])c1cc(Cl)ccc1OCc1ccccc1 | 90.8 | > 100 | > 100 | > 100 | > 100 | > 100 | > 100 |  |  |  |  |  |  |  |  |  |  |  |  |  |
| CCC(C)C1NC(=O)C2CCCN2C(=O)CNC(=O)C(C)NC(=O)C(Cc2ccccc2)NC(=O)C(C(C)C)NC1=O (stereo not drawn) (cyclo(GPIVFA); configuration not given here) | > 100 | > 100 | > 100 | > 100 | > 100 | > 100 | > 100 | > 100 |  |  |  |  |  |  |  |  |  |  |  |  |
| O=[N+]([O-])c1ccccc1C=NC12CC3CC(CC(C3)C1)C2 | > 100 |  | > 100 | > 100 | > 100 | > 100 | > 100 | > 100 | > 100 |  |  |  |  |  |  |  |  |  |  |  |
| CC12CO[C@@](C)(CC(S(=O)(=O)c3ccccc3)C1)O2 (stereo partly drawn) | > 100 | > 100 | > 100 | > 100 | > 100 |  | > 100 | > 100 | > 100 |  |  |  |  |  |  |  |  |  |  |  |
| CCCCc1n(Cc2ccc3ccccc3c2)cc[n+]1Cc1ccc2ccccc2c1 | 2.4 |  |  | 2.32 | 2.69 |  | 2.64 | 2.63 |  | 0.908 | 1.28 | 1.04 | 1.32 | 1.18 |  |  |  |  |  |  |
| COc1cc2c(cc1OC)NC(=O)NC(Cc1ccc3c(c1)OCO3)CC2 (stereo not drawn) | > 100 |  | > 100 | > 100 | > 100 | > 100 | > 100 | > 100 | 76.2 |  |  |  |  |  |  |  |  |  |  |  |
| COC(=O)C1C=NNC1C(=O)OC (stereo not drawn) | > 100 |  | > 100 | > 100 |  | > 100 | > 100 | > 100 | > 100 |  |  |  |  |  |  |  |  |  |  |  |
| Cc1ccc(C2=C(c3ccc(C)cc3)C3(c4ccc(C)cc4)C4C(=O)c5ccccc5C(=O)C4C2(c2ccc(C)cc2)S3=O)cc1 (stereo not drawn) | 31 |  | > 100 | > 100 | > 100 | > 100 | > 100 | > 100 | > 100 | 9.93 | > 100 | > 100 | 60.6 | > 100 | > 100 | > 100 | > 100 | > 100 | > 100 |  |
| O=c1c(Br)cc2c(-c3ccccc3)c3cc(Br)c(O)c(Br)c3oc-2c1Br |  |  | > 100 | > 100 | > 100 | > 100 | > 100 | > 100 |  |  |  |  |  |  |  |  |  |  |  |  |
| CN[C@@H](C)[C@H](N)c1ccccc1 | > 100 |  | > 100 | > 100 | > 100 | > 100 |  |  | > 100 |  |  |  |  |  |  |  |  |  |  |  |
| C=CC/C(=C\COP(=O)(OCc1ccc([N+](=O)[O-])o1)N(C)CCCCCl)CC/C=C(\C)CCC=C(C)C (stereo not drawn) | 29.1 | 41.8 |  | 30 | 32.9 | 31.4 |  | 29 |  | 13.5 | 15.7 | 16.5 | 17.2 |  |  |  |  | 13.8 |  | 3.46 |
| CCOC(=N)CC(=O)Nc1cccc(Cl)c1 | > 100 | > 100 | > 100 | > 100 | > 100 | > 100 | > 100 | > 100 | > 100 |  |  |  |  |  |  |  |  |  |  |  |
| CC(=O)[CH-]C(=O)c1ccccc1.CC(=O)[CH-]C(=O)c1ccccc1.Cl.[O-]c1ccccn1.[O-]c1ccccn1.[Ti+4] | > 100 |  | > 100 | > 100 | > 100 | > 100 | > 100 | > 100 | > 100 | > 100 | > 100 | > 100 | > 100 | > 100 |  |  | > 100 | > 100 | > 100 |  |
| COc1ccc2c(c1)[n+]([O-])c(-c1ccc(C)cc1)c(N)[n+]2[O-] | > 100 | > 100 | > 100 | 62 | > 100 |  | > 100 | > 100 | 30.3 |  |  |  |  |  |  |  |  |  |  |  |
| O=C(CC1(O)C(=O)Nc2ccccc21)c1ccc(O)cc1 (stereo not drawn) | > 100 | > 100 | > 100 | > 100 | > 100 | > 100 | > 100 | > 100 |  |  |  |  |  |  |  |  |  |  |  |  |
| CC1(C)C(=O)/C=C\C(=O)C(C)(C)C(=O)/C=C\C(=O)C(C)(C)C(=O)/C=C\C(=O)C(C)(C)C(=O)/C=C\C1=O | 99.4 | 27.8 | 48.7 | 63.9 | > 58 | > 53.8 | 33.1 | 69.7 | 20.2 |  |  |  |  |  |  |  |  |  |  |  |
| C=C1C2CC(OC(C)=O)C3(C)C(c4ccoc4)OC(=O)[C@@H](O)[C@]13OC1C[C@H](OC(C)=O)C(C)(C)[C@H](CC(=O)OC)[C@]12C (stereo partly drawn) | > 100 |  | > 100 |  | > 100 | > 100 |  |  |  |  |  |  |  |  |  |  |  |  |  |  |
| COc1cccc2c1C(=O)c1c(O)c3c(c(O)c1C2=O)C[C@@](O)(C(=O)CO)CC3OC1CC(O)C(O)C(C)O1 (stereo partly drawn) | 1.08 |  | 11.3 | 2.99 | 2.28 | 2.53 | 0.806 | 3.66 | 1.5 |  |  |  |  |  |  | 1.47 |  |  |  |  |
| CCOC(=O)c1c(C)nc2c(c1N)CC(=O)N2CCc1ccccc1 | 18.1 | 28.1 | 13.3 | 19.4 | 12.1 | 14.7 | 4.9 | 24.9 | 1.11 | 1.37 | 8.2 | 4.68 | 2.35 | 1.31 |  |  | 0.412 | 0.384 | 0.283 | 0.444 |
| O=S1(=O)CCCS(=O)(=O)C(c2ccccc2)=C1c1ccccc1 | > 100 | > 100 | > 100 | > 100 | > 100 | > 100 | > 100 | > 100 | 89.9 |  |  |  |  |  |  |  |  |  |  |  |
| COC1C(OC(=O)/C=C/C=C/C=C/C=C\C(=O)O)CCC2(CO2)C1C1(C)OC1CC=C(C)C (stereo not drawn) | > 200 |  | > 200 |  | > 200 | > 200 | > 200 | > 200 | > 200 | > 200 | > 200 |  | > 200 |  | > 200 | > 200 | > 200 | > 200 | > 200 |  |
